# Test results as given in US9433622B2, “Pyrimidine compounds useful in the treatment of diseases mediated by IKKE and/or TBK1 mechanisms” (DOMAINEX LIMITED, priority 2013, dated 2016).
# Like-named read-outs stand apart in the source and are kept apart here.
# Columns and labels:
# IKKε = IKKε (Homo sapiens (Human), UniProt Q14164); assay: Lanthascreen TR-FRET kinase inhibition assay, IKKε; format: biochemical
# In short: (§1)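 TR-FRET: terbium phosphospecific antibody detects phosphorylation of 400 nM fluorescein-IkBα peptide, 20 μM ATP, 20 °C, HEPES pH 7.5 with 3% DMSO. IKKε at 2 nM, 1 h reaction; TBK1 at 8 nM, 2.5 h reaction; started by kinase addition.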
# TBK1 = TBK1 (Homo sapiens (Human), UniProt Q9UHD2); assay: Lanthascreen TR-FRET kinase inhibition assay, TBK1; format: biochemical; settings: 20 μM ATP (apparent Km), 8 nM kinase, 2.5 h
# In short: as §1
# [1] = 20 μM ATP (apparent Km), 2 nM kinase, 1 h
# Sequence of IKKε (Q14164 whole entry): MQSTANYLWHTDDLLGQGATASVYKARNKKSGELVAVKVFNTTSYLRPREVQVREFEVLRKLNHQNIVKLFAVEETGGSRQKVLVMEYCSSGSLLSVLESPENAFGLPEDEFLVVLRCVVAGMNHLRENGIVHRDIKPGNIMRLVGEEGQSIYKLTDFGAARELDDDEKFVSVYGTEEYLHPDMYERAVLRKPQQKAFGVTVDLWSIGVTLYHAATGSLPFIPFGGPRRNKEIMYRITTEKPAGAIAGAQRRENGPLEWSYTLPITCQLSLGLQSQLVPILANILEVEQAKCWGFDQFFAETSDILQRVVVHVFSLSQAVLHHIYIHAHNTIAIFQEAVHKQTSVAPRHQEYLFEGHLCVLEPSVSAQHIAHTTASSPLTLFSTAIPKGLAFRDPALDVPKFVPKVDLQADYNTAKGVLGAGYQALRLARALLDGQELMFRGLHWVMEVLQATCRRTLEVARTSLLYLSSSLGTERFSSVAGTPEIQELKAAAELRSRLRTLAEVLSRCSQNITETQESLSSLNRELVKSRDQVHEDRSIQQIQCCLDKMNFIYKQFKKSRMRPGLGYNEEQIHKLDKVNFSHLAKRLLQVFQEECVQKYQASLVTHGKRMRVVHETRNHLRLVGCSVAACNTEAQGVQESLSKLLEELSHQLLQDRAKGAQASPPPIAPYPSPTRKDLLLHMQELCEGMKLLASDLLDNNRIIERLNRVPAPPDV
# Sequence of TBK1 (Q9UHD2 whole entry): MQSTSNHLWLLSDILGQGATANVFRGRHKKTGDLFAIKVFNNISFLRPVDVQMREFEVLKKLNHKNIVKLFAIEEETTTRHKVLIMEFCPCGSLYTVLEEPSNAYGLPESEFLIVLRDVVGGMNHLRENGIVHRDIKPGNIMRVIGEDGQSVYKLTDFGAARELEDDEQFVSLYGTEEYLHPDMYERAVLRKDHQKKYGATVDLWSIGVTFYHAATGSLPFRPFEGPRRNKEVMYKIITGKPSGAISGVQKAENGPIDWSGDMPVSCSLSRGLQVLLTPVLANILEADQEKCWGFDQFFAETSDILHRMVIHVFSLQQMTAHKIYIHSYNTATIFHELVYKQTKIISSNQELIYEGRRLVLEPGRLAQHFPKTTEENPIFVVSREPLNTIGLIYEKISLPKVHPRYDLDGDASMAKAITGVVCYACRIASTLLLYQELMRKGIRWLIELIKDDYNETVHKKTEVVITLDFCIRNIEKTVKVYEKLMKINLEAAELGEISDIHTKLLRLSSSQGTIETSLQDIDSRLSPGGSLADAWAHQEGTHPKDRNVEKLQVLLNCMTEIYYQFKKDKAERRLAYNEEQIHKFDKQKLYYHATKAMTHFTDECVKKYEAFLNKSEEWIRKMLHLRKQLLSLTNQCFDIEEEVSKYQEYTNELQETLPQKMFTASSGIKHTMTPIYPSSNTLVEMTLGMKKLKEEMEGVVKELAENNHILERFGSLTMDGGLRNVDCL
Compound,IC50 (IKKε; [1]) [nM],IC50 (TBK1) [nM],IC50 (IKKε) [nM]
"N#Cc1cc(-c2ccnc(Nc3ccc(N4CCOCC4)cc3)n2)cnc1N1CCCC1 [DMX-5, 5-[2-(4-Morpholin-4-yl-phenylamino)-pyrimidin-4-yl]-2-pyrrolidin-1-yl-nicotinonitrile]",< 30,< 15,–
"COCCNCC(=O)Nc1ccc(Nc2nccc(-c3cnc(N4CC[C@H](F)C4)c(C#N)c3)n2)cn1 [DMX-54, N-(5-{4-[5-Cyano-6-((S)-3-fluoro-pyrrolidin-1-yl)-pyridin-3-yl]-pyrimidin-2-ylamino}-pyridin-2-yl)-2-(2-methoxy-ethylamino)-acetamide]",< 30,< 100,–
"N#Cc1cc(-c2ccnc(Nc3ccnc(NC(=O)CN4CCOCC4)c3)n2)cnc1N1CC[C@H](F)C1 [DMX-34, N-(4-{4-[5-Cyano-6-((S)-3-fluoro-pyrrolidin-1-yl)-pyridin-3-yl]-pyrimidin-2-ylamino}-pyridin-2-yl)-2-morpholin-4-yl-acetamide]",< 30,< 30,–
"N#Cc1cc(-c2ccnc(Nc3ccc(C(=O)NCCO)cc3)n2)cnc1N1CC[C@H](F)C1 [DMX-48, 4-{4-[5-Cyano-6-((S)-3-fluoro-pyrrolidin-1-yl)-pyridin-3-yl]-pyrimidin-2-ylamino}-N-(2-hydroxy-ethyl)-benzamide]",< 15,< 15,–
"CC(N)C(=O)Nc1ccc(Nc2nccc(-c3cnc(N4CC[C@H](F)C4)c(C#N)c3)n2)cn1 (stereo partly drawn) [DMX-56, 2-Amino-N-(5-{4-[5-cyano-6-((S)-3-fluoro-pyrrolidin-1-yl)-pyridin-3-yl]-pyrimidin-2-ylamino)-pyridin-2-yl)-propionamide]",< 30,< 100,–
"N#Cc1nc(-c2ccnc(Nc3ccc(N4CCOCC4)cc3)n2)ccc1N1CC[C@H](O)C1 [DMX-57, 3-((S)-3-Hydroxy-pyrrolidin-1-yl)-6-[2-(4-morpholin-4-yl-phenylamino)-pyrimidin-4-yl]-pyridine-2-carbonitrile]",< 30,< 15,–
"CN(c1ncc(-c2ccnc(Nc3ccc(CN4CCOCC4)nc3)n2)cc1C#N)C1CCOC1 (centres unmarked) [DMX-163, 2-[Methyl-(tetrahydro-furan-3-yl)-amino]-5-[2-(6-morpholin-4-ylmethyl-pyridin-3-ylamino)-pyrimidin-4-yl]-nicotinonitrile]",< 100,< 100,–
"N#Cc1cc(-c2ccnc(Nc3cnc(N4CCOCC4)nc3)n2)cnc1N1CC[C@H](F)C1 [DMX-20, 2-((S)-3-Fluoro-pyrrolidin-1-yl)-5-[2-(2-morpholin-4-yl-pyrimidin-5-ylamino)-pyrimidin-4-yl]-nicotinonitrile]",< 100,< 100,–
"N#Cc1cc(-c2ccnc(Nc3ccc(NC4CCNCC4)nc3)n2)cnc1N1CC[C@H](F)C1 [DMX-10, 2-((S)-3-Fluoro-pyrrolidin-1-yl)-5-{2-[6-(piperidin-4-ylamino)-pyridin-3-ylamino]-pyrimidin-4-yl}-nicotinonitrile]",< 30,< 30,–
"N#Cc1cc(-c2ccnc(Nc3cn[nH]c3)n2)cnc1N1CC[C@H](F)C1 [DMX-63, 2-((S)-3-Fluoro-pyrrolidin-1-yl)-5-[2-(1H-pyrazol-4-ylamino)-pyrimidin-4-yl]-nicotinonitrile]",< 15,< 15,–
"N#Cc1cc(-c2ccnc(Nc3cccc(C(=O)NC4CCNCC4)c3)n2)cnc1N[C@@H]1CCOC1 [DMX-117, 3-(4-{5-Cyano-6-[(R)-(tetrahydro-furan-3-yl)amino]-pyridin-3-yl}-pyrimidin-2-ylamino)-N-piperidin-4-yl-benzamide]",< 1000,< 1000,–
"N#Cc1cc(-c2ccnc(Nc3ccc(NCCO)nc3)n2)cnc1N1CC[C@H](F)C1 [DMX-27, 2-((S)-3-Fluoro-pyrrolidin-1-yl)-5-{2-[6-(2-hydroxy-ethylamino)-pyridin-3-ylamino]-pyrimidin-4-yl}-nicotinonitrile]",–,< 30,< 30
"N#Cc1cc(-c2ccnc(Nc3ccc(CN4CCOCC4)nc3)n2)cnc1N1CCCC1CC(N)=O (centres unmarked) [DMX-131, 2-(1-{3-Cyano-5-[2-(6-morpholin-4-ylmethyl-pyridin-3-ylamino)-pyrimidin-4-yl]-pyridin-2-yl}-pyrrolidin-2-yl)-acetamide]",< 30,< 30,–
"N#Cc1cc(-c2ccnc(Nc3ccc(CN4CCOCC4)cc3)n2)cnc1N1CC[C@H](F)C1 [DMX-30, 2-((S)-3-Fluoro-pyrrolidin-1-yl)-5-[2-(4-morpholin-4-ylmethyl-phenylamino)-pyrimidin-4-yl]-nicotinonitrile]",< 15,< 15,–
"Cn1cc(Nc2nccc(-c3cnc(N4CCC[C@@H]4C(=O)O)c(C#N)c3)n2)cn1 [DMX-40, (R)-1-{3-Cyano-5-[2-(1-methyl-1H-pyrazol-4-ylamino)-pyrimidin-4-yl]-pyridin-2-yl}-pyrrolidine-2-carboxylic acid]",< 9000,< 1000,–
"N#Cc1cc(-c2nc(Nc3ccc(NC(=O)CN4CCOCC4)nc3)ncc2F)cnc1N1CC[C@H](F)C1 [DMX-88, N-(5-{4-[5-Cyano-6-((S)-3-fluoro-pyrrolidin-1-yl)-pyridin-3-yl]-5-fluoro-pyrimidin-2-ylamino}-pyridin-2-yl)-2-morpholin-4-yl-acetamide]",< 100,< 100,–
"CC(NCc1ccccc1)C(=O)Nc1ccc(Nc2nccc(-c3cnc(N4CC[C@H](F)C4)c(C#N)c3)n2)cn1 (stereo partly drawn) [DMX-55, 2-Benzylamino-N-(5-{4-[5-cyano-6-((S)-3-fluoro-pyrrolidin-1-yl)-pyridin-3-yl]-pyrimidin-2-ylamino}-pyridin-2-yl)-propionamide]",< 100,< 30,–
"CN1CCC(Nc2ccc(Nc3nccc(-c4cnc(N5CC[C@H](F)C5)c(C#N)c4)n3)cn2)CC1 [DMX-9, 2-((S)-3-Fluoro-pyrrolidin-1-yl)-5-{2-[6-(1-methyl-piperidin-4-ylamino)-pyridin-3-ylamino]-pyrimidin-4-yl}-nicotinonitrile]",< 15,< 30,–
"CN1CCC(NC(=O)c2cccc(Nc3nccc(-c4cnc(N5CCC(F)(F)C5)c(C#N)c4)n3)c2)CC1 [DMX-14, 3-{4-[5-Cyano-6-(3,3-difluoro-pyrrolidin-1-yl)-pyridin-3-yl]-pyrimidin-2-ylamino}-N-(1-methyl-piperidin-4-yl)-benzamide]",< 100,< 100,–
"CNc1ncc(-c2ccnc(Nc3ccc(NC4CCN(C)CC4)nc3)n2)cc1C#N [DMX-119, 2-Methylamino-5-{2-[6-(1-methyl-piperidin-4-ylamino)-pyridin-3-ylamino]-pyrimidin-4-yl}-nicotinonitrile]",< 1000,< 100,–
"N#Cc1cc(-c2ccnc(Nc3cnn(C4CCOCC4)c3)n2)cnc1N1CC[C@H](F)C1 [DMX-33, 2-((S)-3-Fluoro-pyrrolidin-1-yl)-5-{2-[1-(tetrahydro-pyran-4-yl)-1H-pyrazol-4-ylamino]-pyrimidin-4-yl}-nicotinonitrile]",< 15,< 15,–
"N#Cc1cc(-c2ccnc(Nc3cccc(=O)[nH]3)n2)cnc1N1CC[C@H](F)C1 [DMX-73, 2-((S)-3-Fluoro-pyrrolidin-1-yl)-5-[2-(6-oxo-1,6-dihydro-pyridin-2-ylamino)-pyrimidin-4-yl]-nicotinonitrile]",< 1000,< 1000,–
